Data from ChEMBL document CHEMBL1151187, “Antioxidant xanthones from Garcinia vieillardii” (J Nat Prod, 2004).
Calls of active or inactive are those of the source. The rule behind the calls is not given here.

These compounds were tested on Radical scavenging activity (assay: Antioxidant activity assessed as DPPH radical scavenging activity).
Assay type: functional

Row | Structure (SMILES) | Activity
1 | COc1ccc(O)c(C(C)(C)C)c1.COc1ccc(O)cc1C(C)(C)C | Active
2 | C=CC(C)(C)c1c(O)cc(O)c2c(=O)c3ccc(O)c(O)c3oc12 | Active
3 | C=C(c1c(OC)cc(O)c2c(=O)c3ccc(O)c(O)c3oc12)C(C)C | Active
